The record followed here is PMC6594366 (Journal of the American Chemical Society, 2018).

In this test the target is human serum albumin (HSA) (Homo sapiens, UniProt P02768). In words: fluorescent probe displaced from HSA by GdLx. Type of test: binding.
Sequence of human serum albumin (HSA) (P02768 25-609): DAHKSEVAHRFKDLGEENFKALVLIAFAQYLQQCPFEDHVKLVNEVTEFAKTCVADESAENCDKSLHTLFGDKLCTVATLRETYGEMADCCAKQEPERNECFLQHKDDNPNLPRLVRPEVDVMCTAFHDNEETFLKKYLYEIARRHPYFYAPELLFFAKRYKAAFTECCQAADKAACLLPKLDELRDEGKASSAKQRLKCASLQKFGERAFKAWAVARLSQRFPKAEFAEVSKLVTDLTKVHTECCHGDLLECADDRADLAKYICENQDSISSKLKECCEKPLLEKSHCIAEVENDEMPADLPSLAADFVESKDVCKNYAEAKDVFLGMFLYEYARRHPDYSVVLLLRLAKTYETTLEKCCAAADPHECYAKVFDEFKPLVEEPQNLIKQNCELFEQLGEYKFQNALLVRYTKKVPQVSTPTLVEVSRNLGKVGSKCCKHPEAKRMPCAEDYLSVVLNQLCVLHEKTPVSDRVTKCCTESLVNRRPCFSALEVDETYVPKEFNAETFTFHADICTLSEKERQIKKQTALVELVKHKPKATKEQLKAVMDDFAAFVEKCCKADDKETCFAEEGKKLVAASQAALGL

Regarding `CN(C)c1cccc2c(S(=O)(=O)NCC(=O)O)cccc12` [dansylglycine], the “fluorescent probe displaced from HSA by GdLx” value is given as “Determined by displacement of fluorescent dansylglycine from HSA upon addition of GdLx”.
